One compound from patent publication US8129384B2, “Imidazo[1,2-a]pyrazines as orexin receptor antagonists” (Glaxo Group Limited, priority 2008, dated 2012) can be followed below.

Assay [1] deals with T1, human cloned orexin-1 receptor (Homo sapiens, UniProt O43613).
T1 construct: expressed in transfected cells
T1 sequence (O43613 1-425): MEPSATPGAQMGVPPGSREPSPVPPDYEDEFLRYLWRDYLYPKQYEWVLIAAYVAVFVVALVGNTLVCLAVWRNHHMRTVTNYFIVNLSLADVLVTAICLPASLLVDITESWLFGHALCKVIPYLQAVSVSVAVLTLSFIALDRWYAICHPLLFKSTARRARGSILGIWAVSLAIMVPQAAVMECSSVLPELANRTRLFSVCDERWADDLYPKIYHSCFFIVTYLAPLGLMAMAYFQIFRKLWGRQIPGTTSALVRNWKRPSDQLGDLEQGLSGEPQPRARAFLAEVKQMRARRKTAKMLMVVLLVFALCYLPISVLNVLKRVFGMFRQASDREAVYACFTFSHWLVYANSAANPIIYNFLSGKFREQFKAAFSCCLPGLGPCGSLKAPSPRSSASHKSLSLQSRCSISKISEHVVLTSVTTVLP
As to the kind of experiment: Antagonist affinity at human Orexin-1 receptor using FLIPR ([Ca2+]i). In kind it is cell-based. The settings on record: CHO-hOX1 cells, EC80 hOrexinA stimulus, functional pKi from IC50 by modified Cheng-Prusoff correction; read-out: fpKi value at the human cloned orexin-1 receptor (converted). How it is done: (§1) Determination of Antagonist Affinity at Human Orexin-1 and 2 Receptors Using FLIPR
(§2) Adherent Chinese Hamster Ovary (CHO) cells, stably expressing the recombinant human Orexin-1 (hOX1) or human Orexin-2 receptors (hOX2), were maintained in culture in Alpha Minimum Essential Medium (Gibco/Invitrogen, cat. no.; 22571-020), supplemented with 10% decomplemented foetal bovine serum (Life Technologies, cat. no. 10106-078) and 400 ug/mL Geneticin G418 (Calbiochem, cat. no. 345810). Cells were grown as monolayers under 95%:5% air:CO2 at 37° C. and passaged every 3-4 days. The highest passage used was 25. […]
(§3) An agonist stimulus 384-well plate containing 50 μL/well of human orexin A (hOrexinA) was prepared just before using by diluting with buffer a stock plate: final concentration is equivalent to the calculated EC80 for hOrexinA. […]
(§4) The loaded cells were then incubated for 10 min at 37° C. with test compound. The plates were then placed into a FLIPR™ (Molecular Devices, UK) to monitor cell fluorescence (λex=488 nm, λEM=540 nm) (Sullivan E, Tucker E M, Dale I L. Measurement of [Ca^2+]i using the fluometric imaging plate reader (FLIPR). In: Lambert D G (ed.), Calcium Signaling Protocols. New Jersey: Humana Press, 1999, 125-136). A baseline fluorescence reading was taken over a 5 to 10 second period, and then 10 μL of EC80 hOrexinA solution was added. […]

Assay [2] deals with T2, human cloned orexin-2 receptor (Homo sapiens, UniProt O43614).
T2 construct: expressed in transfected cells
T2 sequence (O43614 1-444): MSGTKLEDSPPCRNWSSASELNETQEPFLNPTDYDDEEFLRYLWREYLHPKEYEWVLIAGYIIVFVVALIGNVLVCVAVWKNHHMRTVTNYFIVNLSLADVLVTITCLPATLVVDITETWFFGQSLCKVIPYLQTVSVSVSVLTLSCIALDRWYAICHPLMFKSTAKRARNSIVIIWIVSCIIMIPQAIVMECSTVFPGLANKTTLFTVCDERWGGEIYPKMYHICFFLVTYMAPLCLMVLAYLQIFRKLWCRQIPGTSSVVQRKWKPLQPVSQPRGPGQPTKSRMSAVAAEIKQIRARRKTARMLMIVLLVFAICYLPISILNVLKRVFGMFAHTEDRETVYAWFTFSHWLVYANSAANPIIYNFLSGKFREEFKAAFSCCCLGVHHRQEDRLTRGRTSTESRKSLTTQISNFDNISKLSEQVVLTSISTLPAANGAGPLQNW
Nature of the assay: Antagonist affinity at human Orexin-2 receptor using FLIPR ([Ca2+]i). The settings on record: CHO-hOX2 cells, EC80 hOrexinA stimulus, functional pKi from IC50 by modified Cheng-Prusoff correction; read-out: fpKi value at the human cloned orexin-2 receptor (converted). In kind it is cell-based. How it is done: as §1, §2, §3, §4

SMILES strings stand for the structures. Where a name gives a salt, the structure may show the parent alone.

For `Cc1cn2cc(C[C@@H]3CCCCN3C(=O)c3nc(C)sc3-c3ccccc3)nc2c(C)n1` [Example 1, 6,8-dimethyl-2-({(2S)-1-[(2-methyl-5-phenyl-1,3-thiazol-4-yl)carbonyl]-2-piperidinyl}methyl)imidazo[1,2-a]pyrazine (HCl salt)], the Ki in assay [1] was 5.01 nM; in assay [2] it was 6.31 nM.
